# From patent publication US12054485B2, “Substituted imidazoquinolines” (BIONTECH SE, priority 2017, dated 2024)
# Biological target: T1, human TLR7 (Homo sapiens, UniProt Q9NYK1)
# T1 construct: host or cells: HEK-Blue-hTLR7
# T1 sequence (Q9NYK1 27-1049): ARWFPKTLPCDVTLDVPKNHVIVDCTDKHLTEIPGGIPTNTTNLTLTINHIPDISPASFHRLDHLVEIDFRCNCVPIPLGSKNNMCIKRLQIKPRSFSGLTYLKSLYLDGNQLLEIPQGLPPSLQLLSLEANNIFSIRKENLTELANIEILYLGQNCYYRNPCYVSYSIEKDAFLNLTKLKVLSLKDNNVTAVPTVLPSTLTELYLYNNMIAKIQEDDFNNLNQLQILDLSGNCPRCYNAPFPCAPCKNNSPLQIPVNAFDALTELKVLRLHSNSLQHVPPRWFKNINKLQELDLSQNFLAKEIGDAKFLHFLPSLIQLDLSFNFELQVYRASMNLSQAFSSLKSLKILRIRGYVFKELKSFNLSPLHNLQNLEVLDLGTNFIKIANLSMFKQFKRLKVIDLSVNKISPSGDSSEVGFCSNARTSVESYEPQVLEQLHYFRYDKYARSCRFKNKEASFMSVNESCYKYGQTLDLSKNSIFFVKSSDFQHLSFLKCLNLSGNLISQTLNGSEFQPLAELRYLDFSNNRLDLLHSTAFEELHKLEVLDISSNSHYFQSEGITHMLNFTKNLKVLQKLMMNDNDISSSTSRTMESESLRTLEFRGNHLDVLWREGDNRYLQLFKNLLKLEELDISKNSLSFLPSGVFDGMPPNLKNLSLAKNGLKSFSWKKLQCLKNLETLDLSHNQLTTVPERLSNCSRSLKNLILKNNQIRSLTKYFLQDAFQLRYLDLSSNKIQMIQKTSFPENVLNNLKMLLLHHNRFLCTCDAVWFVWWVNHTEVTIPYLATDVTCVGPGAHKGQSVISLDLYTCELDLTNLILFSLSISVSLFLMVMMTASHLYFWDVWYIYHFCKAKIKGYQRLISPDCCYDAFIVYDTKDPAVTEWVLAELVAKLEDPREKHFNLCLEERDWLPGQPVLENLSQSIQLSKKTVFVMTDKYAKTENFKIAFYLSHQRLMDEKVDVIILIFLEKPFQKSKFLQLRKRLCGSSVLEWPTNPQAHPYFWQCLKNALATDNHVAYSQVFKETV
# Assay: TLR7 reporter gene assay (HEK-Blue-hTLR7, NFkB/AP-1 inducible SEAP)
# Type: cell-based
# Details: HEK-Blue-hTLR7; read-out: EC50 in the TLR7 reporter gene assay
# Description: 2) TLR Stimulation Assay:
# Compounds are tested for stimulation of human TLR7 and TLR8, respectively, via reporter gene expression analyzed in a cell line stably transfected with human TLR7 and TLR8, respectively, and coexpressing an NFkB/AP-1 inducible SEAP reporter gene. Stimulation with a TLR ligand leads to NFkB/AP-1 activation and upregulation and secretion of SEAP, which can be measured in the supernatant with QuantiBlue™ detection system (InvivoGen).
# Cell lines used were either HEK-Blue-hTLR7 (InvivoGen #hkb-htlr7) or HEK-Blue-hTLR8 (InvivoGen #hkb-htlr8). Cells were cultured following manufacturer's instructions.
# Assay: • prepare cell suspensions of each cell line with Nv=0.11×10^6 cells/ml in medium (DMEM 4.5 g/l Glucose, 2-4 mM L-glutamine+10% FBS) without antibiotics (Nv=number of living cells) • add 180 μl of the suspensions per well of a 96 well flat bottom cell culture plates (coster, #3506) • incubate the plates overnight at 37° C. and 5% CO2 • prepare samples and controls as solutions in DMSO: R848, CL075 (TLR 7/8 agonist by InvivoGen) and Guardiquimod each to a final concentration of 10 μM, ODN2006 (InvivoGen) and ODN2216 (InvivoGen) each to a final concentration 2 μM; • compounds of the invention are applied in dilution series to final concentrations of 30, 10, 3, 1, etc. μM • add 20 μl diluted compounds and controls (see above) to the wells • incubate plates for 20-24 h at 37° C. and 5% CO2 • prepare QuantiBlue™ (InvivoGen #10H19-MM) solution, following manufacturer's instructions: solubilize the powder of one pouch in 100 ml MilliQ grade water, heat at 37° C. in a water bath for about 30 min, filter the solution with a paper filter • add 100 μl prepared QuantiBlue™ solution in each well of a 96 well plate with flat bottom • add […] cell culture supernatant from the induced cells per well • incubate plates for 1 to 1.5 h at 37° C. (until an intense blue color has developed) • read OD at 620 nm with a plate reader • calculate EC50 from data points
compound,measurement,value
"CCc1nc2c(N)nc3ccccc3c2n1CCCCN(C(C)=O)C1CCOCC1 [Example 1, N-(4-(4-Amino-2-ethyl-1H-imidazo[4,5-c]quinolin-1-yl)butyl)-N-(tetrahydro-2H-pyran-4-yl)acetamide]",EC50,44 nM
